Where two headings read alike, the source gives them in different places.
Legend:
[1] = test system: NSCLC strain A-549; test: MTT assay for cell survival, NSCLC A-549 in vitro; type: cell-based, human; conditions: ED50 for killing of NSCLC strain A-549 in vitro, 4 days
[2] = test system: SCLC strain SHP-77; test: MTT assay for cell survival, SCLC SHP-77 in vitro; type: cell-based, human; conditions: ED50 for killing of SCLC strain SHP-77 in vitro, 4 days, 0 = no detectable activity
[3] = test system: A549 NSCLC cells; test: Inhibition of A-549 tumor growth in vivo in nude mice; set-up: species or system athymic nude mice; key: an IC50 value of “0” represents no detectable anti-cancer activity for a drug in a given cell line; “Stim.” indicates the observation of a stimulatory activity on the growth of the cancer cell line; conditions: percent inhibition of tumor growth in nude mice; i.p. 5 mg/kg/every second day or 10 mg/kg/every fourth day
Procedure: Compounds having high in vitro cytotoxic activity were tested against implanted tumors in vivo. Athymic nude mice were implanted subcutaneously with suspensions (2 million SHP-77 SCLC cells, 1 million A549 NSCLC cells or 1.5 million PC3 PC cells) in Matrigel suspension. On the eighth day after tumor implantation groups of 5 mice bearing implants were injected intraperitoneally with the compounds being tested at 5 mg/kg/every second day or at 10 mg/kg/every fourth day; control animals were injected with an equal volume of isotonic saline. Less soluble compounds were initially dissolved in dimethyl sulfoxide (DMSO) and diluted with medium. In those cases the control injections contained the same concentration of DMSO. Tumor size was measured with a caliper three times per week. Tumor volume was calculated by the formula: Volume(cc)=3.14×(length)×(width)^2/6 At autopsy tumors were removed and weighed. Tumor inhibition was calculated on both weight and measurement basis. In each Table, an IC50 value of “0” represents no detectable anti-cancer activity for a drug in a given cell line and “Stim.” indicates the observation of a stimulatory activity on the growth of the cancer cell line.

[4] = test system: PC3 PC cells; test: Inhibition of PC3 tumor growth in vivo in nude mice; set-up: species or system athymic nude mice; key to PC3 In vivo % inhib.: an IC50 value of “0” represents no detectable anti-cancer activity for a drug in a given cell line; “Stim.” indicates the observation of a stimulatory activity on the growth of the cancer cell line; conditions: percent inhibition of tumor growth in nude mice; prostate cancer; i.p. 5 mg/kg/every second day or 10 mg/kg/every fourth day
Outline: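 Groups of 5 nude mice dosed i.p. at 10 mg/kg every fourth day or 5 mg/kg every second day, beginning 8 days after s.c. implantation of PC3 (1.5 million), A549 (1 million) or SHP-77 (2 million) cells in Matrigel; saline or DMSO-matched controls. Tumor weight at necropsy and caliper-derived volume both used to calculate inhibition.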

| Compound | IC50 [1] | IC50 ([2]; read-out: SCLC SHP-77 IC50) | A-549 In vivo % inhib. [3] | PC3 In vivo % inhib. [4] | IC50 ([2]; read-out: SHP-77 In vitro IC50) |
| --- | --- | --- | --- | --- | --- |
| O=C(C=Cc1c(F)c(F)c(F)c(F)c1F)NC(Cc1ccc(-c2ccccc2)cc1)C(=O)NC1CN2CCC1CC2 [Analog M-1288, F5c-Bip-(R)-(+)-Aqu] | 7.3 µM | 4.3 µM | – | – | – |
| CC1(C)CC(NC(=O)C(Cc2ccc(OCc3c(Cl)cccc3Cl)cc2)NC(=O)c2ccc(B(O)O)cc2)CC(C)(C)N1 (centres unmarked) [Analog M-1372, Bbz-OC2Y-Atmp] | – | > 60 µM | 64% | – | – |
| O=C(C=Cc1c(F)c(F)c(F)c(F)c1F)NC(Cc1ccc(I)cc1)C(=O)N1CCN(Cc2ccc(Cl)cc2)CC1 (centres unmarked) [Analog M-1310, F5c-PIF-4-Clbp] | 12 µM | – | – | Stim. | – |
| CC1(C)CC(NC(=O)[C@H](Cc2ccc(C#N)cc2)NC(=O)c2ccccn2)CC(C)(C)N1 [Analog M-1352, Pic-PCNF-Atmp] | – | > 60 µM | 21% | – | – |
| CC(C(=O)NC(Cc1ccc(OCc2c(Cl)cccc2Cl)cc1)C(=O)NC1CC(C)(C)NC(C)(C)C1)c1cccc(C(=O)c2ccccc2)c1 (centres unmarked) [Analog M-1392, Ktpf-OC2Y-Atmp] | – | 2.9 µM | 28% | 18% | – |
| O=C(C=Cc1c(F)c(F)c(F)c(F)c1F)NC(Cc1ccc2ccccc2c1)C(=O)N(Cc1ccccn1)Cc1ccccn1 (centres unmarked) [Analog M-1200, F5c-Nal-Dpic] | – | – | Stim | – | 5 µM |
| O=C(C=Cc1c(F)c(F)c(F)c(F)c1F)NC(Cc1ccc(I)cc1)C(=O)N1CC2CC1CN2Cc1ccccc1 (centres unmarked) [Analog M-1280, F5c-PIF-Bdbh] | 20 µM | 10 µM | – | 40% | – |
| O=C(C=Cc1c(F)c(F)c(F)c(F)c1F)NC(Cc1ccc(I)cc1)C(=O)N1CCC2(CC1)OCCO2 (centres unmarked) [Analog M-1284, F5c-PIF-Dasd] | 20 µM | 22 µM | – | Stim. | – |
| CC1(C)CC(NC(=O)C(Cc2ccc(OCc3c(Cl)cccc3Cl)cc2)NC(=O)c2ccccn2)CC(C)(C)N1 (centres unmarked) [Analog M-1350, Pic-OC2Y-Atmp] | – | 6.1 µM | 36% | – | – |
| CC1(C)CC(NC(=O)C(Cc2ccc(OCc3c(Cl)cccc3Cl)cc2)NC(=O)Cc2c(F)c(F)c(F)c(F)c2F)CC(C)(C)N1 (centres unmarked) [Analog M-1356, F5pa-OC2Y-Atmp] | – | 4.4 µM | 0 | – | – |
| CC1(C)CC(NC(=O)C(Cc2ccc(OCc3c(Cl)cccc3Cl)cc2)NC(=O)Cc2ccccc2Nc2c(Cl)cccc2Cl)CC(C)(C)N1 (centres unmarked) [Analog M-1382, Dfc-OC2Y-Atmp] | – | 2.9 µM | 46% | – | – |
| Cc1ccc(CN2CCN(C(=O)C(Cc3ccc(I)cc3)NC(=O)C=Cc3c(F)c(F)c(F)c(F)c3F)CC2)cc1 (centres unmarked) [Analog M-1332, F5c-PIF-4-Mbp] | 7.8 µM | – | – | 63% | – |
| COc1ccc(C=CC(=O)NC(Cc2ccc(OCc3c(Cl)cccc3Cl)cc2)C(=O)NC2CC(C)(C)NC(C)(C)C2)cc1OC (centres unmarked) [Analog M-1362, 3,4Dmc-OC2Y-Atmp] | – | 4 µM | 21% | – | – |
| CCCCCCCCN1CCN(C(=O)C(Cc2ccc(I)cc2)NC(=O)C=Cc2c(F)c(F)c(F)c(F)c2F)CC1 (centres unmarked) [Analog M-1330, F5c-PIF-Ocp] | 17 µM | – | – | 40% | – |
| CC1(C)CC(NC(=O)C(Cc2ccc(OCc3c(Cl)cccc3Cl)cc2)NC(=O)C(c2ccccc2)C2CCCCC2)CC(C)(C)N1 (single isomer, unassigned) [M-1124#2, Chpa-OC2Y-Atmp] | – | – | 4.5% | – | 3.5 µM |
| O=C(NC1CCN(Cc2ccccc2)CC1)C(Cc1c(F)c(F)c(F)c(F)c1F)NC(=O)C(c1ccc(Cl)cc1)c1ccc(Cl)cc1 (centres unmarked) [Analog M-1188, Bcpa-F5F-Abzp] | – | – | 17% | – | 4.5 µM |
| CC1(C)CC(NC(=O)C(Cc2ccc(-c3ccccc3)cc2)NC(=O)C(c2ccc(Cl)cc2)c2ccc(Cl)cc2)CC(C)(C)N1 (centres unmarked) [Analog M-1274, Bcpa-Bip-Atmp] | 7.3 µM | 2.1 µM | – | – | – |

| Compound | IC50 [1] | IC50 ([2]; read-out: SCLC SHP-77 IC50) | A-549 In vivo % inhib. [3] | PC3 In vivo % inhib. [4] | IC50 ([2]; read-out: SHP-77 In vitro IC50) |
| --- | --- | --- | --- | --- | --- |
| O=C(C=Cc1c(F)c(F)c(F)c(F)c1F)NC(Cc1ccc(I)cc1)C(=O)N1CCN(CCc2ccccc2)CC1 (centres unmarked) [Analog M-1304, F5c-PIF-Pep] | 17 µM | – | – | – | – |
| O=C(NC(Cc1ccc(-c2ccccc2)cc1)C(=O)N1CC2CC1CN2Cc1ccccc1)C(c1ccc(Cl)cc1)c1ccc(Cl)cc1 (centres unmarked) [Analog M-1276, Bcpa-Bip-Bdbh] | 20 µM | > 60 µM | – | 56% | – |
| O=C(C=Cc1c(F)c(F)c(F)c(F)c1F)NC(Cc1ccc(I)cc1)C(=O)NC1CCN(Cc2ccccc2)C1 (centres unmarked) [Analog M-1326, F5c-PIF-BapR] | 10 µM | – | – | 0.6% | – |
| O=C(C=Cc1c(F)c(F)c(F)c(F)c1F)NC(Cc1ccc(I)cc1)C(=O)N1CCN(Cc2ccc(F)cc2)CC1 (centres unmarked) [Analog M-1322, F5c-PIF-Fbp] | 13 µM | – | – | 46% | – |
| Cc1cc(C)c(CN2CCN(C(=O)C(Cc3ccc(I)cc3)NC(=O)C=Cc3c(F)c(F)c(F)c(F)c3F)CC2)c(C)c1 (centres unmarked) [Analog M-1334, F5c-PIF-Tmbp] | 19 µM | – | – | 50% | – |
| CC1(C)CC(NC(=O)C(Cc2ccc(OCc3c(Cl)cccc3Cl)cc2)NC(=O)C(C)(c2ccccc2)c2ccccc2)CC(C)(C)N1 (centres unmarked) [Analog M-1126, 22Dp-OC2Y-Atmp] | – | – | 36% | – | 4 µM |
| CC1(C)CC(NC(=O)C(Cc2ccc(OCc3c(Cl)cccc3Cl)cc2)NC(=O)c2ccc(NC(=N)N)cc2)CC(C)(C)N1 (centres unmarked) [Analog M-1390, Gbz-OC2Y-Atmp] | 4.3 µM | > 40 µM | – | Stim. | – |
| O=C(C=Cc1c(F)c(F)c(F)c(F)c1F)NC(Cc1ccc(-c2ccccc2)cc1)C(=O)N1CC2CC1CN2c1ccc(F)cc1 (centres unmarked) [Analog M-1272, F5c-Bip-Fpdh] | 22 µM | 10 µM | – | 71% | – |
| O=C(C=Cc1c(F)c(F)c(F)c(F)c1F)NC(Cc1ccc(I)cc1)C(=O)NC1CN2CCC1CC2 [Analog M-1290, F5c-PIF-(S)-(−)-Aqu] | 14 µM | – | – | – | – |
| O=C(C=Cc1c(F)c(F)c(F)c(F)c1F)NC(Cc1ccc(I)cc1)C(=O)NC1CN2CCC1CC2 [Analog M-1286, F5c-PIF-(R)-(+)-Aqu] | 9 µM | 4.3 µM | – | – | – |
| C=CCN(CC=C)CCN1CCN(C(=O)C(Cc2ccc(I)cc2)NC(=O)C=Cc2c(F)c(F)c(F)c(F)c2F)CC1 (centres unmarked) [Analog M-1318, F5c-PIF-Daep] | 8.4 µM | – | – | – | – |
| O=C(C=Cc1c(F)c(F)c(F)c(F)c1F)NC(Cc1ccc(I)cc1)C(=O)N1CCCN(Cc2ccccc2)CC1 (centres unmarked) [Analog M-1294, F5c-PIF-Bhp] | 22 µM | – | – | 44% | – |
| O=C(C=Cc1c(F)c(F)c(F)c(F)c1F)NC(Cc1ccc(-c2ccccc2)cc1)C(=O)NC1CN2CCC1CC2 [Analog M-1292, F5c-Bip-(S)-(−)-Aqu] | 9.8 µM | – | – | – | – |
| O=C(C=Cc1c(F)c(F)c(F)c(F)c1F)NC(Cc1ccc(I)cc1)C(=O)N1CCN(C(c2ccc(F)cc2)c2ccc(F)cc2)CC1 (centres unmarked) [Analog M-1336, F5c-PIF-Fpmp] | 12 µM | – | – | 71% | – |
| COc1ccc2cc(C(C)C(=O)NC(Cc3ccc(OCc4c(Cl)cccc4Cl)cc3)C(=O)NC3CC(C)(C)NC(C)(C)C3)ccc2c1 (centres unmarked) [Analog M-1380, Napr-OC2Y-Atmp] | 1.6 µM | 1.7 µM | – | 26% | – |
| CC(C)=CCCC(C)CC(=O)NC(Cc1ccc(OCc2c(Cl)cccc2Cl)cc1)C(=O)NC1CC(C)(C)NC(C)(C)C1 (centres unmarked) [Analog M-1366, Dmo-OC2Y-Atmp] | – | 3.8 µM | 14% | – | – |
| O=C(C=Cc1c(F)c(F)c(F)c(F)c1F)NC(Cc1ccc(I)cc1)C(=O)NC1CCN(Cc2ccccc2)C1 (centres unmarked) [Analog M-1312, F5c-PIF-BapS] | 13 µM | – | – | 33% | – |

Reference: US7858349B2, “Anti-cancer compounds” (The Regents of the University of Colorado, priority 1999, dated 2010)
